In EPA's ToxRefDB 2:

Experiments:
mouse [1] = conditions: Carcinogenicity, b6c3f1, Oral, Feed, dose end: 101 week, group: systemic
rat [2] = conditions: Carcinogenicity, fischer, Oral, Feed, dose end: 101 week, group: systemic
rat [3] = conditions: Peri- and post-natal toxicity study (Segment III), sprague dawley, Oral, Gavage/Intubation, dose end: 42 PND
dog [4] = conditions: Chronic toxicity, beagle, Oral, Feed, dose end: 12 month, group: systemic
dog [5] = conditions: Chronic toxicity; beagle; Oral; Feed; dose end: 12 month; group: systemic; systemic / pathology microscopic / adrenal gland / fatty change + systemic / pathology microscopic / adrenal gland / hyperplasia + systemic…
rat [6] = conditions: Subchronic oral toxicity in rodents, other, Feed, dose end: 13 week, group: systemic
rat [7] = conditions: Prenatal developmental toxicity study, sprague dawley, Oral, Gavage/Intubation, dose end: 15 GD
dog [8] = conditions: Chronic toxicity, beagle, Oral, Feed, dose end: 52 week, group: systemic
rat [9] = conditions: Subchronic oral toxicity in rodents, other, Feed, dose end: 90 day, group: systemic
rat [10] = conditions: Subchronic oral toxicity in rodents, sprague dawley, Feed, dose end: 13 week, group: systemic, systemic / clinical chemistry / thyroxine (t4) / thyroxine (t4)
mouse [11] = conditions: Subchronic oral toxicity in rodents, cd1, Feed, dose end: 90 day, group: systemic, systemic / clinical chemistry / aminopyrine-n-demethylase / aminopyrine-n-demethylase + systemic / clinical chemistry / p-nitroanisole …
rat [12] = conditions: Combined chronic toxicity/carcinogenicity, sprague dawley, Oral, Feed, dose end: 2 year, group: systemic
rat [13] = conditions: Prenatal developmental toxicity study, sprague dawley, Oral, Gavage/Intubation, dose end: 15 GD; remark: listed apart in the source
dog [14] = conditions: Subchronic oral toxicity in nonrodent, beagle, Feed, dose end: 13 week, group: systemic, systemic / hematology / erythrocyte (rbc) count differential / erythrocyte (rbc) + systemic / in life observation / body weight / body …
rat [15] = conditions: Developmental neurotoxicity range-finding study; sprague dawley; Oral; Feed; dose end: 21 PND; group: cannot be grouped; systemic / in life observation / body weight / offspring (pup) weight
dog [16] = conditions: Subchronic oral toxicity in nonrodent, beagle, Feed, dose end: 90 day, group: systemic, systemic / hematology / erythrocyte (rbc) count differential / erythrocyte (rbc) + systemic / hematology / mean corpuscular (cell) volume (…
mouse [17] = conditions: Carcinogenicity; b6c3f1; Oral; Feed; dose end: 78 week; group: systemic; systemic / pathology microscopic / liver / carcinoma + systemic / in life observation / body weight / body weight + systemic / in life …
rat [18] = conditions: Carcinogenicity, other, Oral, Feed, dose end: 78 week, group: systemic
rat [19] = conditions: Developmental neurotoxicity study; sprague dawley; Oral; Gavage/Intubation; dose end: 140 PND; group: cannot be grouped; systemic / in life observation / body weight / body weight + developmental / offspring survival late / [other] / [other] + systemic / in …
[20] = systemic / in life observation / body weight / body weight
[21] = systemic / in life observation / body weight / body weight + systemic / pathology microscopic / blood vessel / hemangiosarcoma + systemic / …
[22] = systemic / in life observation / body weight / body weight + systemic / pathology microscopic / liver / neoplastic nodule + systemic / …
[23] = group: maternal, reproductive / offspring survival early / dead fetuses / dead fetuses
[24] = group: offspring, systemic / hematology / leukocyte (wbc) count differential / leukocyte (wbc) + systemic / in life observation / body weight / offspring (pup…
[25] = group: parental, systemic / in life observation / body weight / body weight gain
[26] = systemic / organ weight / spleen / absolute + systemic / organ weight / spleen / relative to body weight + systemic / pathology microscopic…
[27] = systemic / pathology gross / liver / accentuated lobular pattern + systemic / pathology microscopic / eye / lesion(s) (nos) + systemic / …
[28] = systemic / pathology microscopic / kidney / hypertrophy
[29] = systemic / pathology microscopic / kidney / hypertrophy + systemic / in life observation / body weight / body weight + systemic / in life …
[30] = group: developmental, developmental / developmental malformation / bone / incomplete ossification
[31] = group: maternal, systemic / in life observation / body weight / body weight gain + systemic / in life observation / food consumption / food consumption
[32] = group: maternal, systemic / in life observation / body weight / body weight gain + systemic / in life observation / food consumption / food consumption + …
[33] = systemic / in life observation / body weight / body weight gain
[34] = systemic / in life observation / body weight / body weight gain + systemic / clinical chemistry / cholesterol / cholesterol + systemic / …
[35] = systemic / pathology microscopic / kidney / pigmentation
[36] = systemic / pathology microscopic / kidney / pigmentation + systemic / clinical chemistry / cholesterol / cholesterol + systemic / clinical …
[37] = total + systemic / clinical chemistry / thyroid stimulating hormone (…
[38] = systemic / clinical chemistry / thyroid stimulating hormone (thyrotropin) (tsh) / thyroid stimulating hormone (=thyrotropin) (tsh) + …
[39] = group: developmental, developmental / developmental malformation / bone / absent + developmental / developmental malformation / bone / bent + developmental / …
[40] = group: maternal, systemic / in life observation / body weight / body weight + systemic / in life observation / body weight / body weight gain + systemic / in…
[41] = systemic / pathology microscopic / liver / necrosis
[42] = systemic / pathology microscopic / liver / necrosis + systemic / pathology microscopic / thyroid gland / adenoma + systemic / in life …

Cc1cc(C)c(N)cc1C [2,4,5-Trimethylaniline]
LOAEL (mouse [1]; [20]): 7.5 mg/kg/day
NOAEL (mouse [1]; [20]): < 7.5 mg/kg/day
LEL (mouse [1]; [21]): 7.5 mg/kg/day
NEL (mouse [1]; [21]): < 7.5 mg/kg/day
LOAEL (rat [2]; [20]): 10 mg/kg/day
NOAEL (rat [2]; [20]): < 10 mg/kg/day
LEL (rat [2]; [22]): 10 mg/kg/day
NEL (rat [2]; [22]): < 10 mg/kg/day

CC(C)(C)C(O)(CCc1ccc(Cl)cc1)Cn1cncn1 (configuration not stated) [Tebuconazole]
LEL (rat [3]; [23]): 60 mg/kg/day
LOAEL (rat [3]; [23]): > 60 mg/kg/day
NEL (rat [3]; [23]): 20 mg/kg/day
NOAEL (rat [3]; [23]): ≥ 60 mg/kg/day
LEL (rat [3]; [24]): 60 mg/kg/day
LOAEL (rat [3]; [24]): > 60 mg/kg/day
NEL (rat [3]; [24]): 20 mg/kg/day
NOAEL (rat [3]; [24]): ≥ 60 mg/kg/day
LEL (rat [3]; [25]): 60 mg/kg/day
LOAEL (rat [3]; [25]): > 60 mg/kg/day
NEL (rat [3]; [25]): 20 mg/kg/day
NOAEL (rat [3]; [25]): ≥ 60 mg/kg/day
LEL (dog [4]; [26]): 15.5 mg/kg/day
NEL (dog [4]; [26]): < 15.5 mg/kg/day
LOAEL (dog [4]; [27]): 77.3 mg/kg/day
NOAEL (dog [4]; [27]): 15.5 mg/kg/day
LEL (dog [5]): 4.39 mg/kg/day
LOAEL (dog [5]): 4.39 mg/kg/day
NEL (dog [5]): 2.96 mg/kg/day
NOAEL (dog [5]): 2.96 mg/kg/day

CCOP(=O)([O-])C(N)=O.[NH4+] [Fosamine ammonium]
LEL (rat [6]; [28]): 50 mg/kg/day
LOAEL (rat [6]; [28]): 50 mg/kg/day
NEL (rat [6]; [29]): 10 mg/kg/day
NOAEL (rat [6]; [29]): 10 mg/kg/day

S=C([S-])NCCNC(=S)[S-].S=C([S-])NCCNC(=S)[S-].[Mn+2].[Zn+2] [Mancozeb]
LEL (rat [7]; [30]): 2 mg/kg/day
NEL (rat [7]; [30]): < 2 mg/kg/day
LOAEL (rat [7]; group: developmental, developmental / developmental malformation / bone / incomplete ossification + developmental / developmental malformation / brain / [other]): 8 mg/kg/day
NOAEL (rat [7]; group: developmental, developmental / developmental malformation / bone / incomplete ossification + developmental / developmental malformation / brain / [other…): 2 mg/kg/day
LEL (rat [7]; [31]): 128 mg/kg/day
LOAEL (rat [7]; [31]): 128 mg/kg/day
NEL (rat [7]; [32]): 32 mg/kg/day
NOAEL (rat [7]; [32]): 32 mg/kg/day
LEL (dog [8]; [33]): 7.26 mg/kg/day
LOAEL (dog [8]; [33]): 7.26 mg/kg/day
NEL (dog [8]; [34]): 1.75 mg/kg/day
NOAEL (dog [8]; [34]): 1.75 mg/kg/day
LEL (rat [9]; [35]): 7.42 mg/kg/day
LOAEL (rat [9]; [35]): 7.42 mg/kg/day
NEL (rat [9]; [36]): 3.49 mg/kg/day
NOAEL (rat [9]; [36]): 3.49 mg/kg/day
LEL (rat [10]; total): 17.8 mg/kg/day
LOAEL (rat [10]; total): 17.8 mg/kg/day
NEL (rat [10]; [37]): 9.24 mg/kg/day
NOAEL (rat [10]; [37]): 9.24 mg/kg/day
LEL (mouse [11]): 167 mg/kg/day
LOAEL (mouse [11]): 167 mg/kg/day
NEL (mouse [11]): 18.1 mg/kg/day
NOAEL (mouse [11]): 18.1 mg/kg/day
LEL (rat [12]; systemic / clinical chemistry / thyroid stimulating hormone (thyrotropin) (tsh) / thyroid stimulating hormone (=thyrotropin) (tsh)): 2.33 mg/kg/day
LOAEL (rat [12]; [38]): 30.9 mg/kg/day
NEL (rat [12]; [38]): 0.77 mg/kg/day
NOAEL (rat [12]; [38]): 4.38 mg/kg/day
LEL (rat [13]; [39]): 512 mg/kg/day
LOAEL (rat [13]; [39]): 512 mg/kg/day
NEL (rat [13]; [39]): 128 mg/kg/day
NOAEL (rat [13]; [39]): 128 mg/kg/day
LEL (rat [13]; [40]): 128 mg/kg/day
LOAEL (rat [13]; [40]): 128 mg/kg/day
NEL (rat [13]; [40]): 32 mg/kg/day
NOAEL (rat [13]; [40]): 32 mg/kg/day
LEL (dog [14]): 28.6 mg/kg/day
LOAEL (dog [14]): 28.6 mg/kg/day
NEL (dog [14]): 2.98 mg/kg/day
NOAEL (dog [14]): 2.98 mg/kg/day
LEL (rat [15]): 30 mg/kg/day
LOAEL (rat [15]): 30 mg/kg/day
NEL (rat [15]): 5 mg/kg/day
NOAEL (rat [15]): 5 mg/kg/day

O=C(NC(=O)c1c(F)cccc1F)Nc1cc(Cl)c(OC(F)(F)C(F)C(F)(F)F)c(Cl)c1F (configuration not stated) [Noviflumuron]
LEL (dog [16]): 113 mg/kg/day
LOAEL (dog [16]): 113 mg/kg/day
NEL (dog [16]): 1.06 mg/kg/day
NOAEL (dog [16]): 1.06 mg/kg/day

ClC(Cl)=C(c1ccc(Cl)cc1)c1ccc(Cl)cc1 [p,p'-DDE]
LEL (mouse [17]): 22.2 mg/kg/day
LOAEL (mouse [17]): > 39.1 mg/kg/day
NEL (mouse [17]): < 22.2 mg/kg/day
NOAEL (mouse [17]): ≥ 39.1 mg/kg/day
LOAEL (rat [18]; [41]): 12.1 mg/kg/day
NOAEL (rat [18]; [41]): < 12.1 mg/kg/day
LEL (rat [18]; [42]): 12.1 mg/kg/day
NEL (rat [18]; [42]): < 12.1 mg/kg/day

O=C1CCC(N2C(=O)c3ccccc3C2=O)C(=O)N1 (configuration not stated) [Thalidomide]
LEL (rat [19]): 100 mg/kg/day
LOAEL (rat [19]): > 100 mg/kg/day
NEL (rat [19]): < 100 mg/kg/day
NOAEL (rat [19]): ≥ 100 mg/kg/day
